Data set [1] can be described thus: Air pollutant specificity. The following applies: acid 250 μM, metal 100 nM, 30 minutes at 37° C. On the procedure:
FIG. 3B illustrates Ozone specificity against other air pollutants: Sample A=no additive, Sample B=ozone, Sample C=HNO3, Sample D=H2SO4, Sample E=Pb, Sample F=Pd, Sample G=Pt. [Acid]=250 μM. [Metal]=100 nM. The acid samples were incubated in 5:95 MeOH/pure water for 30 minutes at 37° C. The metal samples were incubated in 5:95 MeOH/pH 7 buffer for 30 minutes at 37° C.
A number of other pollutants were screened to ensure that ozone was selectively detected. Nitrogen dioxide and sulfur dioxide convert to their corresponding acids in aqueous solution so nitric acid and sulfuric acid were screened. Lead, palladium and platinum, which are known pollutants emitted from automobiles, were also screened. […]
Acids: HNO3 or H2SO4 (10 μL of 0.1 M solution; [acid]final=250 μM) and solution A (5.0 μL, [compound 4]final=12.5 μM) were added to a mixture of MeOH/pure water solution (5:95) (4.0 mL), and the samples were incubated at 37° C. for 30 minutes before fluorescence measurement. […]
Metals: Pb, Pd or Pt solution (40 μL of 10 μM solution; [Metal]final=100 nM) and solution A (5.0 μL, [compound 4]final=12.5 μM) were added to a mixture of MeOH/pH 7 buffer ([PO4^3−]=5 mM) (5:95) (4.0 mL), and the samples were incubated at 37° C. for 30 minutes before fluorescence measurement. […]

Data set [2] is described as follows: Ozone detection in human serum. To be noted: human serum diluted in pH 7 buffer, ozone ~5 μM. On the procedure: FIG. 2E illustrates Ozone detection in human serum, wherein Left Sample: 4, no ozone; Right Sample: 4, + ozone.
One embodiment of the present invention utilized sensor 4 to detect ozone in human serum. […] One possible explanation may be due to the small Stokes shift that is found in fluorescein and its derivatives, which makes these fluorophores more prone to influences of scattering and interference.
Ozone detection in human serum. Human serum (1.0 mL) was diluted in pH 7 buffer ([PO4^3−]=5 mM) (3.0 mL). Solution A (5.0 μL, [compound 4]final=12.5 μM) was added to the resulting human serum mixture, and the samples were exposed to ozone (˜5 μM) at 24° C. followed by 1 hour incubation at 37° C. before fluorescence measurement. The experiment was performed in triplicate with an illustration of one of the tests represented in FIG. 2E.

Data set [3] in a line: Time-dependence of the conversion of compound 4 to compound 7. To be noted: 37° C. On the procedure: Time-dependence of the conversion of compound 4 to compound 7 in buffer. Solution A ([compound 4]final=12.5 μM) was added to a mixture of MeOH/pH 7 buffer ([PO4^3−]=5 mM) (5:95) (4.0 mL), and the sample was exposed to ozone (˜5 μM) at 24° C. followed by incubation at 37° C. Aliquots of the reaction mixture were taken out at various times for fluorescence measurement (FIG. S6). The conversion of compound 4 to compound 7 requires 60 minutes for completion (presumably the β-elimination is the rate determining step because the formation and fragmentation of molozonides are extremely rapid), but 10-15 minutes is sufficient to observe fluorescence signal.
FIG. 7 illustrates time-dependence of the conversion of compound 4 to compound 7 in cell culture media at 37° C. […]. Solution A ([compound 4]final=12.5 μM) was added to a mixture of 10% FBS in RPMI-1640 cell culture media/pH 7 buffer ([PO4^3−]=5 mM) (1:3) (4.0 mL), and the sample was exposed to ozone (˜5 μM) at 24° C. followed by incubation at 37° C. Aliquots of the reaction mixture were taken out at various times for fluorescence measurement (FIG. 8). The conversion of compound 4 to compound 7 requires 15-20 minutes for completion, but <5 minutes is sufficient to observe fluorescence signal. Although the exact mechanism of this enhancement is not known, catalysis of a β-elimination by action of bovine serum albumin has been previously reported.

Data set [4] is described as follows: Concentration dependence / sensitivity of fluorescent ozone detection. To be noted: MeOH/pH 7 buffer (5:95), samples diluted 10-fold. As to the method: FIG. 2B is a correlation between fluorescent intensity and ozone in 5:95 MeOH/pH 7 buffer after ten-fold dilution of original samples. The linear correlation is y=0.000900x+0.0467; R^2=0.987; average standard deviation=0.00844. The intensity continued to be linear up to 12.5 μM.
The present invention the sensitivity of our fluorescent method for ozone detection was examined. The fluorescent intensity correlated to the concentration of ozone in the 50 nM-12.5 μM (2.4-600 ppbv) range with S/B of 2.6-310 after 10-fold dilution of the original samples (0-500 nM shown in FIG. 2B). The level of detection is 59 nM (2.9 ppbv; S/B=3) and the level of quantitation is 340 nM (16 ppbv; S/B=10).
Concentration dependence. […] Error bars were determined from the calculated mean and standard deviation (Prism 5.0a, GraphPad Software, Inc.).

A short description of a further data set: Relative quantum yields. It counts as physicochemical. The following applies: relative to fluorescein; phosphate buffer pH=7.0, excited at 490 nm. As to the method:
Relative Quantum Yields. To determine quantum yields relative to fluorescein, a stock solution of compound 4 was prepared in DMSO (1 mM) and diluted in phosphate buffer (pH=7.0) to OD490=0.09. The samples were excited at 490 nm and the integrated emission spectra were compared. The quantum yields of all compounds were referenced to fluorescein in 0.1 N NaOH (Φ=0.95). The quantum yield for compound 4 was calculated as 0.00132

Where [5] appears, read: 10% FBS in RPMI-1640 cell culture media/pH 7 buffer (1:3).
Where [6] appears, read: MeOH/pH 7 buffer (5:95), ozone ~5 μM.

Each structure is given as a SMILES string.

`C=CCCOc1cc2oc3cc(=O)c(Cl)cc-3c(-c3ccccc3CO)c2cc1Cl` [compound 4]: the “fluorescent signal with other air pollutants (species C-G)” value in data set [1] was “none of these species C-G produced a fluorescent signal”. For the same compound, in data set [2], the S/B is reported as 92. Further, the “time required for completion of conversion of compound 4 to compound 7” value in data set [3] (setting [5]) was 15 to 20 min; in data set [3] (setting [6]), 60 min. The entries for the “time sufficient to observe fluorescence signal” value in data set [3] (setting [5]) and in data set [3] (setting [6]) were < 5 min and 10 to 15 min, respectively. Further, the “background signal (fluorescence intensity, λem=523 nm)” value in data set [4] is reported as 0.0377×10^5. The compound also returned a quantum yield in “Relative quantum yields” of 0.00132.

(Values after patent publication US8361802B2, “Fluorescent ozone sensor” (University of Pittsburgh—Of the Commonwealth System of …, priority 2009, dated 2013).)
